Measurements taken from the supplement of paper PMC10307832.

Legend:
Assay in all cases: relative viability (nuclei count vs DMSO), 5 days (fraction); higher = more cells survive
[1] = compound: CC1=CC(=CC=C1)NC2=NC(=CS2)C3=CC=NC=C3 + CCNC(=O)c1noc(-c2cc(C(C)C)c(O)cc2O)c1-c1ccc(CN2CCOCC2)cc1 [Luminespib] (partner 0.01 µM)
Outline: (§1)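 Dosing by pin tool came one day after lung cancer cell lines were seeded in 1536-well plates, using either one drug or a fixed anchor-drug dose plus five library-drug doses (not always all listed) in √10 steps. After 5 days, nuclei were counted on 4× images. Relative viability is treated-well nuclei count divided by vehicle-well nuclei count, and values are medians of duplicate plates.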

[2] = compound: CC1=CC(=CC=C1)NC2=NC(=CS2)C3=CC=NC=C3 + Nc1ncn([C@H]2C[C@H](O)[C@@H](CO)O2)c(=O)n1 [Decitabine] (partner 2 µM)
Outline: as §1

[3] = compound: CC1=CC(=CC=C1)NC2=NC(=CS2)C3=CC=NC=C3 + N=C(N)NC(=N)NCCc1ccccc1 [Phenformin] (partner 250 µM)
Outline: as §1

[4] = compound: Cc1ccc(NC(=O)c2ccc(CN3CCN(C)CC3)cc2)cc1Nc1nc(-c2cccnc2)cs1 [Masitinib] + C[C@]1(O)C[C@@H](c2nc(-c3ccc4ccc(-c5ccccc5)nc4c3)c3c(N)nccn32)C1 [Linsitinib] (partner 1 µM)
Outline: as §1

Cell Line | relative viability ([1]; first compound 0.08 µM) | relative viability ([1]; first compound 0.253 µM) | relative viability ([1]; first compound 0.8 µM) | relative viability ([1]; first compound 2.53 µM) | relative viability ([1]; first compound 8 µM) | relative viability ([2]; first compound 0.08 µM) | relative viability ([2]; first compound 0.253 µM) | relative viability ([2]; first compound 0.8 µM) | relative viability ([2]; first compound 2.53 µM) | relative viability ([2]; first compound 8 µM) | relative viability ([3]; first compound 0.08 µM) | relative viability ([3]; first compound 0.253 µM) | relative viability ([3]; first compound 0.8 µM) | relative viability ([3]; first compound 2.53 µM) | relative viability ([3]; first compound 8 µM) | relative viability ([4]; first compound 0.01 µM) | relative viability ([4]; first compound 0.03162 µM) | relative viability ([4]; first compound 0.1 µM) | relative viability ([4]; first compound 0.3162 µM) | relative viability ([4]; first compound 1 µM)
HCC-44 | 0.974 | 0.939 | 1.06 | 1.01 | 1.09 | 0.88 | 0.788 | 0.834 | 0.767 | 0.826 | 0.128 | 0.198 | 0.3 | 0.171 | 0.294 | 0.567 | 0.487 | 0.648 | 0.568 | 0.666
COR-L23 | 0.603 | 0.648 | 0.564 | 0.659 | 0.662 | 0.404 | 0.378 | 0.429 | 0.379 | 0.388 | 0.414 | 0.378 | 0.443 | 0.377 | 0.406 | 1.11 | 0.923 | 1 | 1.07 | 1.05
NCI-H1355 | 0.64 | 0.583 | 0.375 | 0.477 | 0.502 | 0.347 | 0.311 | 0.351 | 0.318 | 0.356 | 0.343 | 0.376 | 0.391 | 0.429 | 0.362 | 0.808 | 0.697 | 0.884 | 0.743 | 0.801
NCI-H838 | 0.38 | 0.318 | 0.324 | 0.316 | 0.25 | 0.458 | 0.473 | 0.501 | 0.448 | 0.457 | 0.466 | 0.521 | 0.537 | 0.508 | 0.51 | 0.895 | 0.913 | 1.16 | 0.86 | 1.05
NCI-H2126 | 0.825 | 0.855 | 0.9 | 0.875 | 0.865 | 0.525 | 0.56 | 0.559 | 0.572 | 0.578 | 0.466 | 0.439 | 0.523 | 0.498 | 0.523 | 0.707 | 0.656 | 0.785 | 0.691 | 0.659
BEN | 0.424 | 0.174 | 0.488 | 0.267 | 0.356 | 0.636 | 0.687 | 0.772 | 0.588 | 0.781 | 0.27 | 0.254 | 0.285 | 0.266 | 0.25 | 1.04 | 0.858 | 1.19 | 1.23 | 0.939
LCLC-103H | 1 | 0.824 | 0.878 | 0.943 | 0.608 | 0.72 | 0.664 | 0.672 | 0.665 | 0.573 | 0.284 | 0.308 | 0.327 | 0.309 | 0.27 | 0.796 | 1.02 | 0.859 | 1.01 | 1.08
EKVX | 0.854 | 0.835 | 0.892 | 0.819 | 0.765 | 0.289 | 0.397 | – | 0.356 | 0.316 | 0.225 | 0.212 | 0.228 | 0.204 | 0.215 | – | 0.87 | 0.876 | 0.881 | 1.06
ABC-1 | 0.447 | 0.766 | 0.492 | 0.676 | 0.647 | 1.01 | – | 1.23 | 0.933 | 0.626 | 0.229 | 0.223 | 0.193 | 0.221 | 0.31 | 0.78 | 0.78 | 0.982 | 0.871 | 0.622
NCI-H661 | 0.887 | 0.963 | 0.885 | 0.887 | 0.863 | 0.514 | 0.585 | 0.556 | 0.505 | 0.533 | 0.281 | 0.3 | 0.278 | 0.285 | 0.284 | 0.653 | 0.569 | 0.577 | 0.584 | 0.428
NCI-H1651 | 1.16 | 0.893 | 0.875 | 0.706 | 0.74 | 0.558 | 0.55 | 0.66 | 0.475 | 0.628 | 0.346 | 0.318 | 0.34 | 0.33 | 0.316 | 0.971 | 0.97 | 1.14 | 1 | 0.944
NCI-H2087 | 0.17 | 0.183 | 0.137 | 0.21 | 0.126 | 0.264 | 0.293 | 0.281 | 0.263 | 0.238 | 0.373 | 0.421 | 0.449 | 0.575 | 0.446 | 0.936 | 0.951 | 0.923 | 1.01 | 0.884
NCI-H1944 | 0.674 | 0.771 | 0.792 | 0.654 | 0.72 | 0.367 | 0.426 | 0.399 | 0.361 | 0.389 | 0.191 | 0.187 | 0.203 | 0.178 | 0.198 | – | 1.14 | 0.794 | 1.12 | 1.17
LC-2-ad | 0.858 | – | 1.09 | 0.768 | 0.965 | 0.754 | 0.776 | 0.793 | 0.799 | 0.69 | 0.556 | – | 0.568 | 0.585 | 0.523 | 0.876 | 0.83 | 0.791 | 0.855 | 0.833
COR-L 105 | 0.727 | 0.769 | 0.755 | 0.591 | 0.665 | 0.648 | 0.691 | 0.624 | 0.572 | 0.533 | 0.429 | 0.495 | 0.534 | 0.388 | 0.496 | 0.993 | 0.973 | 0.921 | 0.753 | 0.881
